Experimental data reported in the supplement of paper PMC10307832.

Experiments:
Assay in all cases: relative viability (nuclei count vs DMSO), 5 days (fraction); higher = more cells survive
NCI-H2347 = test system: NCI-H2347
Procedure, shortened: (§1)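 Five library-drug doses in √10 steps were combined with a fixed anchor-drug dose, or a single drug was given alone, by pin tool to lung cancer cell lines in 1536-well plates the day after seeding. Nuclei were stained and counted after 5 days. Relative viability is the nuclei count in treated wells over that in vehicle wells, taken as the median of duplicate plates.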

LK-2 = test system: LK-2
Procedure, shortened: as §1

NCI-H650 = test system: NCI-H650
Procedure, shortened: as §1

ChaGo-K-1 = test system: ChaGo-K-1
Procedure, shortened: as §1

NCI-H358 = test system: NCI-H358
Procedure, shortened: as §1

NCI-H1944 = test system: NCI-H1944
Procedure, shortened: as §1

SW 900 = test system: SW 900
Procedure, shortened: as §1

NCI-H520 = test system: NCI-H520
Procedure, shortened: as §1

SW 1573 = test system: SW 1573
Procedure, shortened: as §1

NCI-H3122 = test system: NCI-H3122
Procedure, shortened: as §1

NCI-H460 = test system: NCI-H460
Procedure, shortened: as §1

NCI-H1755 = test system: NCI-H1755
Procedure, shortened: as §1

NCI-H1666 = test system: NCI-H1666
Procedure, shortened: as §1

NCI-H441 = test system: NCI-H441
Procedure, shortened: as §1

A-427 = test system: A-427
Procedure, shortened: as §1

H3255 = test system: H3255
Procedure, shortened: as §1

NCI-H2085 = test system: NCI-H2085
Procedure, shortened: as §1

NCI-H1734 = test system: NCI-H1734
Procedure, shortened: as §1

NCI-H596 = test system: NCI-H596
Procedure, shortened: as §1

NCI-H322M = test system: NCI-H322M
Procedure, shortened: as §1

NCI-H1650 = test system: NCI-H1650
Procedure, shortened: as §1

NCI-H1355 = test system: NCI-H1355
Procedure, shortened: as §1

NCI-H838 = test system: NCI-H838
Procedure, shortened: as §1

EKVX = test system: EKVX
Procedure, shortened: as §1

NCI-H2228 = test system: NCI-H2228
Procedure, shortened: as §1

`CCCCCCCCCCCC1=C(O)C(=O)C=C(O)C1=O` [Embelin] + Cc1nc(Nc2ncc(C(=O)Nc3c(C)cccc3Cl)s2)cc(N2CCN(CCO)CC2)n1 [Dasatinib] (partner 0.075 µM) was tested, and the relative viability (NCI-H2347; first compound 0.08 µM) was 0.332, the relative viability (NCI-H2347; first compound 0.8 µM) was 0.33 and the relative viability (NCI-H2347; first compound 2.53 µM) was 0.296. The relative viability (NCI-H2347; first compound 8 µM) was 0.309, the relative viability (LK-2; first compound 0.08 µM) was 0.26 and the relative viability (LK-2; first compound 0.8 µM) was 0.427. The relative viability (LK-2; first compound 2.53 µM) was 0.304, the relative viability (LK-2; first compound 8 µM) was 0.237 and the relative viability (NCI-H650; first compound 0.08 µM) was 0.443. For the same molecule, the relative viability (NCI-H650; first compound 0.8 µM) was 0.485, the relative viability (NCI-H650; first compound 2.53 µM) was 0.368 and the relative viability (NCI-H650; first compound 8 µM) was 0.383. For the same molecule, the relative viability (ChaGo-K-1; first compound 0.08 µM) was 0.501, the relative viability (ChaGo-K-1; first compound 0.8 µM) was 0.576 and the relative viability (ChaGo-K-1; first compound 2.53 µM) was 0.585. The relative viability (ChaGo-K-1; first compound 8 µM) was 0.582, the relative viability (NCI-H358; first compound 0.08 µM) was 0.205 and the relative viability (NCI-H358; first compound 0.8 µM) was 0.136. The relative viability (NCI-H358; first compound 2.53 µM) was 0.171, the relative viability (NCI-H358; first compound 8 µM) was 0.162 and the relative viability (NCI-H1944; first compound 0.08 µM) was 0.2. For the same molecule, the relative viability (NCI-H1944; first compound 0.8 µM) was 0.221, the relative viability (NCI-H1944; first compound 2.53 µM) was 0.245 and the relative viability (NCI-H1944; first compound 8 µM) was 0.195. The relative viability (SW 900; first compound 0.08 µM) was 0.666, the relative viability (SW 900; first compound 0.8 µM) was 0.571 and the relative viability (SW 900; first compound 2.53 µM) was 0.546. The relative viability (SW 900; first compound 8 µM) was 0.57, the relative viability (NCI-H520; first compound 0.08 µM) was 0.245 and the relative viability (NCI-H520; first compound 0.8 µM) was 0.188. The relative viability (NCI-H520; first compound 2.53 µM) was 0.307, the relative viability (NCI-H520; first compound 8 µM) was 0.132 and the relative viability (SW 1573; first compound 0.08 µM) was 0.406. The relative viability (SW 1573; first compound 0.8 µM) was 0.637, the relative viability (SW 1573; first compound 2.53 µM) was 0.458 and the relative viability (SW 1573; first compound 8 µM) was 0.725. It also gave a relative viability (NCI-H3122; first compound 0.08 µM) of 0.823, a relative viability (NCI-H3122; first compound 0.8 µM) of 0.922 and a relative viability (NCI-H3122; first compound 2.53 µM) of 0.853. For the same molecule, the relative viability (NCI-H3122; first compound 8 µM) was 0.829, the relative viability (NCI-H460; first compound 0.08 µM) was 0.58 and the relative viability (NCI-H460; first compound 0.8 µM) was 0.57. The relative viability (NCI-H460; first compound 2.53 µM) was 0.571, the relative viability (NCI-H460; first compound 8 µM) was 0.416 and the relative viability (NCI-H1755; first compound 0.08 µM) was 0.368. The relative viability (NCI-H1755; first compound 0.8 µM) was 0.49, the relative viability (NCI-H1755; first compound 2.53 µM) was 0.379 and the relative viability (NCI-H1755; first compound 8 µM) was 0.407. It also gave a relative viability (NCI-H1666; first compound 0.08 µM) of 0.793, a relative viability (NCI-H1666; first compound 0.8 µM) of 0.88 and a relative viability (NCI-H1666; first compound 2.53 µM) of 0.839. The relative viability (NCI-H1666; first compound 8 µM) was 0.852, the relative viability (NCI-H441; first compound 0.08 µM) was 0.645 and the relative viability (NCI-H441; first compound 0.8 µM) was 0.633. It also gave a relative viability (NCI-H441; first compound 2.53 µM) of 0.686, a relative viability (NCI-H441; first compound 8 µM) of 0.838 and a relative viability (A-427; first compound 0.08 µM) of 0.689. It also gave a relative viability (A-427; first compound 0.8 µM) of 0.805, a relative viability (A-427; first compound 2.53 µM) of 0.689 and a relative viability (A-427; first compound 8 µM) of 0.727. It also gave a relative viability (H3255; first compound 0.08 µM) of 0.355, a relative viability (H3255; first compound 0.8 µM) of 0.378 and a relative viability (H3255; first compound 2.53 µM) of 0.298. It also gave a relative viability (H3255; first compound 8 µM) of 0.456, a relative viability (NCI-H2085; first compound 0.08 µM) of 0.253 and a relative viability (NCI-H2085; first compound 0.8 µM) of 0.246. For the same molecule, the relative viability (NCI-H2085; first compound 2.53 µM) was 0.227, the relative viability (NCI-H2085; first compound 8 µM) was 0.209 and the relative viability (NCI-H1734; first compound 0.08 µM) was 0.424. For the same molecule, the relative viability (NCI-H1734; first compound 0.8 µM) was 0.53, the relative viability (NCI-H1734; first compound 2.53 µM) was 0.514 and the relative viability (NCI-H1734; first compound 8 µM) was 0.419. It also gave a relative viability (NCI-H596; first compound 0.08 µM) of 0.739, a relative viability (NCI-H596; first compound 0.8 µM) of 0.739 and a relative viability (NCI-H596; first compound 2.53 µM) of 0.708. For the same molecule, the relative viability (NCI-H596; first compound 8 µM) was 0.457, the relative viability (NCI-H322M; first compound 0.08 µM) was 0.26 and the relative viability (NCI-H322M; first compound 0.8 µM) was 0.263. It also gave a relative viability (NCI-H322M; first compound 2.53 µM) of 0.261, a relative viability (NCI-H322M; first compound 8 µM) of 0.232 and a relative viability (NCI-H1650; first compound 0.08 µM) of 0.348. For the same molecule, the relative viability (NCI-H1650; first compound 0.8 µM) was 0.408, the relative viability (NCI-H1650; first compound 2.53 µM) was 0.337 and the relative viability (NCI-H1650; first compound 8 µM) was 0.315. The relative viability (NCI-H1355; first compound 0.08 µM) was 0.753, the relative viability (NCI-H1355; first compound 0.8 µM) was 0.808 and the relative viability (NCI-H1355; first compound 2.53 µM) was 0.845. The relative viability (NCI-H1355; first compound 8 µM) was 0.586, the relative viability (NCI-H838; first compound 0.08 µM) was 0.312 and the relative viability (NCI-H838; first compound 0.8 µM) was 0.316. For the same molecule, the relative viability (NCI-H838; first compound 2.53 µM) was 0.248, the relative viability (NCI-H838; first compound 8 µM) was 0.224 and the relative viability (EKVX; first compound 0.08 µM) was 0.564. For the same molecule, the relative viability (EKVX; first compound 0.8 µM) was 0.724, the relative viability (EKVX; first compound 2.53 µM) was 0.576 and the relative viability (EKVX; first compound 8 µM) was 0.555. It also gave a relative viability (NCI-H2228; first compound 0.08 µM) of 0.503, a relative viability (NCI-H2228; first compound 0.8 µM) of 0.618 and a relative viability (NCI-H2228; first compound 2.53 µM) of 0.592. For the same molecule, the relative viability (NCI-H2228; first compound 8 µM) was 0.396.
